This note sets out measurements from paper PMC10766984, “Josephin domain containing 2 (JOSD2) promotes lung cancer by inhibiting LKB1 (Liver kinase B1) activity” (Signal Transduction and Targeted Therapy, 2024).

Several values for one entry are separate records, joined by “and”; a condition that tells them apart may be missing. Identical values can stand only once.

For data set [1], the system named is LKB1-null NSCLC cell lines. In words: Proliferation assay, panel of five LKB1-null cell lines. In kind it is cell-based. Particulars: 72 h. As for the experimental part:
(§1) For cell proliferation assay, cells infected with lentiviruses packaged indicated plasmids were seeded indicated number cells per well in 96-well plates. Cell number (absorbance) was then estimated by the sulforhodamine B (SRB) (Sigma-Aldrich, #230162) assay and the absorbance of the individual wells was determined at the optical density of 515 nm. For colony formation assay, cells infected with lentiviruses packaged indicated plasmids were seeded indicated number cells per well in 6-well plates. Two weeks later, cells were stained with SRB and the numbers of colonies having more than 50 cells were counted.
(§2) (a) Proliferation assay in LKB1-null cells (means ± SD, n=3). […] Red dashed line indicates 50% of cell survival. (b) Proliferation assay in A549 harboring LKB1-null/WT/3KR (Top) and immunoblotting analysis showing the overexpression efficiency of LKB1-WT/3KR (Bottom). […] (means ± SD, n=3). (c) Representative images of in situ TUNEL assay of cancer cells inside tumor mass with or without JOSD2 inhibitor treatment. (means ± SD, n=3). n.s: P > 0.05; *P < 0.05; **P < 0.01.

For data set [2], the target named is T1, Ataxin-3L (Homo sapiens, UniProt Q9H3M9).
T1 sequence (Q9H3M9 1-355): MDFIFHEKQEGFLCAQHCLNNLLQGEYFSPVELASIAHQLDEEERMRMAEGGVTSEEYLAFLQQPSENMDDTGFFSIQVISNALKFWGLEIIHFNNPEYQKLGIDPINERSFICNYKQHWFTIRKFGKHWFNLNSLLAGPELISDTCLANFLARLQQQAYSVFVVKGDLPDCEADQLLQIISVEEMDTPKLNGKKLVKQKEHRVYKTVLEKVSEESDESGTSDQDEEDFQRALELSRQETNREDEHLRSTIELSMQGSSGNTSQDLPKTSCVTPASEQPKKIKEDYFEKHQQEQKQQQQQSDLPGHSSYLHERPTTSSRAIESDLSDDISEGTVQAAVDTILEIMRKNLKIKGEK
The data set is described as follows: In vitro ubiquitin-AMC assay with GST-Ataxin-3L. Particulars: incubated with GST-Ataxin-3L at 37 °C for 30 min. It counts as biochemical. From the text: (§3) (means ± SD, n=3). […] (means ± SD, n=3). […] (means ± SD, n=3). […] (means ± SD, n=3).

The target of data set [3] is Ataxin-3 (Homo sapiens, UniProt P54252). The data set is described as follows: In vitro ubiquitin-AMC assay with GST-Ataxin-3. In kind it is biochemical. Particulars: incubated with GST-Ataxin-3 at 37 °C for 30 min.
Sequence of Ataxin-3 (P54252 whole entry): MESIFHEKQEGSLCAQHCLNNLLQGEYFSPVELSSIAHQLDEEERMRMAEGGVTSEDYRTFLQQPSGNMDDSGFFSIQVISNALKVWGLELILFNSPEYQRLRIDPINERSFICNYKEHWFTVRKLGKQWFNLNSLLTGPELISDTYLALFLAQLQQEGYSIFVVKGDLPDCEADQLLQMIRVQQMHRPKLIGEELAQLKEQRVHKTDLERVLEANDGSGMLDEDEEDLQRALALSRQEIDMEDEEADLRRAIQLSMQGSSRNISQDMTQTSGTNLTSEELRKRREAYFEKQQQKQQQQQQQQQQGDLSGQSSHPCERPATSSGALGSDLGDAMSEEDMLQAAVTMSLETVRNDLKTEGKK
From the text: as §3

Data set [4] deals with PC-9 cells. The data set is described as follows: Proliferation assay (SRB), 72 h. Particulars: Homo sapiens, LKB1-WT. In kind it is cell-based. As for the experimental part:
(§4) The indicated cell lines were treated with indicated compounds at a series of concentrations for 72 h, followed by cell proliferation assay and colony formation assay. Black dashed line indicates 50% of cell survival.
as §1

The test system of data set [5] is NCI-H358 cells. In words: Proliferation assay (SRB), 72 h. It counts as cell-based. Particulars: Homo sapiens, LKB1-WT. On the procedure: as §4, §1
For data set [6], the system named is NCI-H292 cells. The data set is described as follows: Proliferation assay (SRB), 72 h. Particulars: Homo sapiens, LKB1-WT. It counts as cell-based. On the procedure:
as §4, §1

In data set [7] the test system is NCI-H1299 cells. The data set is described as follows: Proliferation assay (SRB), 72 h. In kind it is cell-based. Particulars: Homo sapiens, LKB1-WT. On the procedure:
as §4, §1

Data set [8] has as its system A549 harboring LKB1-null/WT/3KR. The data set is described as follows: Proliferation assay in cells harboring LKB1-null/WT/3KR. It counts as cell-based. Particulars: series of concentrations, 72 h.
From the text: as §2

The test system of data set [9] is NCI-H1299 xenografted tumors. In words: Antitumor activity of HY041004 in vivo. Details: species or system BALB/c-Nude mice. Particulars: for Tumor Weight: at the endpoint; for T/C: RTVtreated / RTVcontrol. As for the experimental part: as §4
Female BALB/c-Nude mice (4-5 weeks) were subcutaneously transplanted with 1 mm^3 NCI-H1299 xenograft tumor mass. […] The tumor volume was measured by a caliper every 2 days as soon as the tumor reached a palpable size. Relative tumor volume (RTV) was calculated by (RTV=TVt / TV0, where TV0 is the tumor volume measured when starting treatment). The T/C value was calculated as RTVtreated / RTVcontrol.

Data set [10] relates to LKB1-WT NSCLC cell lines. In words: Proliferation assay, panel of LKB1-WT cell lines. In kind it is cell-based. Particulars: 72 h. As for the experimental part:
as §4, §1

Data set [11] concerns NCI-H1395 cells. In words: Proliferation assay in LKB1-null cells, 72 h. It counts as cell-based. Particulars: Homo sapiens. As for the experimental part: as §1, §2
Data set [12] deals with NCI-H838 cells. The data set is described as follows: Proliferation assay in LKB1-null cells, 72 h. In kind it is cell-based. Particulars: Homo sapiens. As for the experimental part:
as §1, §2

Data set [13] deals with NCI-H23 cells. The data set is described as follows: Proliferation assay in LKB1-null cells, 72 h. In kind it is cell-based. Particulars: Homo sapiens. On the procedure:
as §1, §2

Data set [14] deals with NCI-H460 cells. In words: Proliferation assay in LKB1-null cells, 72 h. It counts as cell-based. Particulars: Homo sapiens. On the procedure: as §1, §2
Data set [15] concerns A549 cells. The data set is described as follows: Proliferation assay in LKB1-null cells, 72 h. It counts as cell-based. Particulars: Homo sapiens. On the procedure: as §1, §2
Data set [16] has as its system NCI-H1299 cells. In words: Apoptosis, IB of cell lysates after 72 h. It counts as cell-based. Particulars: series of concentrations.
From the text: as §3

Data set [17] has as its system NCI-H1299 xenografted tumors. In words: TUNEL assay in xenografted tumors. It counts as in vivo, BALB/c-Nude mice. Particulars: oral administration, in situ TUNEL.
From the text: Apoptosis in xenografted tumors was detected by a TUNEL assay kit (Beyotime Biotechnology, Shanghai, China), according to the manufacturer's protocols. Images were captured by a fluorescence microscope.
as §2

For data set [18], the target named is JOSD1 (Homo sapiens, UniProt Q15040). In words: In vitro ubiquitin-AMC assay with GST-JOSD1. In kind it is biochemical. Particulars: incubated with GST-JOSD1 at 37 °C for 30 min.
From the text: as §3

Data set [19] addresses T2, GST-JOSD2 (Homo sapiens, UniProt Q8TAC2).
T2 sequence (Q8TAC2 1-188): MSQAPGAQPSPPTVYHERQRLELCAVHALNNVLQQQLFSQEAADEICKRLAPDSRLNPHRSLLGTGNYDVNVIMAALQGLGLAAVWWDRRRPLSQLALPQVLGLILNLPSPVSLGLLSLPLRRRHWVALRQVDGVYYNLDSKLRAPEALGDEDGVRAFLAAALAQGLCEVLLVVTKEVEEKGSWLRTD
Procedure: This assay is based on the hydrolysis of ubiquitin-AMC by DUBs, releasing AMC, which can be monitored by fluorescence spectroscopy. To search for JOSD2 inhibitors, we employed a library of compounds consisting of 15 reported DUB inhibitors, 31 clinically-used drugs as well as 53 small molecules with novel chemical structures from our collaborator (Supplementary Table S6).
We tested their inhibitory effect at the concentration of 2 μM on JOSD2 DUB activity using an in vitro ubiquitin-AMC assay with recombinant GST-JOSD2 (Fig. 7a; Supplementary Table S6).
Black dashed line indicates no inhibition on JOSD2 activity.
For the in vitro ubiquitin-AMC assay, purified proteins were incubated in reaction buffer (50 mM Tris-HCl, 5 mM MgCl2, 2 mM DTT, 2 mM ATP, pH 7.5) at 37°C for 1 hour. Reactions were initiated by adding 2 μM ubiquitin-AMC (Boston Biochem, #U-550). Fluorescence levels were measured continuously at 25°C using Tecan Spark Microplate Reader at an excitation wavelength of 345 nm and an emission wavelength of 445 nm. For JOSD2 inhibitors screening, the source of the inhibitors were: ① 15 reported DUB inhibitors, ②31 clinically used drugs, ③53 inhibitors with new structure synthesized by our collaborator Prof. Jiawei Liu who is one of the co-first authors of this study. ① and ② was purchased from Target Mol (USA). These compounds (at concentration of 2 μM) were incubated with GST-JOSD2 protein at 37°C for 30 minutes and then subjected to in vitro ubiquitin-AMC assay. PR-619 (Abcam, ab144641), a broad inhibitor of DUB, was introduced as a positive control^2.

Data set [20] has as its system PDX LUAD 110519 (Case 1). In words: Patient-derived xenograft study, intratumor JOSD2 shRNA. It counts as in vivo, BALB/c-Nude mice. As for the experimental part: (§5) PDXs were established in our lab using female BALB/c-Nude mice (4-5 weeks) implanted with tumor tissues from patients undergoing surgeries. […] Once tumors reached approximately 50 mm^3 in volume, mice were randomly assigned to scramble control or JOSD2 shRNA intra-tumor injection treatment. For the intratumor injection, a mice received an intratumorally injection of 5 ×10^6 lentiviruses in 20 μL sterile saline solution every two days.
(In xenograft studies the graft and the host belong to different species.)

Data set [21] concerns PDX LUAD 083120 (Case 2). Described as above. In kind it is in vivo, BALB/c-Nude mice. As for the experimental part: as §5

With `O=C1c2ccncc2C(=O)c2c1nnn2Cc1cc(F)cc(Cl)c1` [HY041004, 3-(3-chloro-5-fluorobenzyl)-3H-[1,2,3] triazolo[4,5-g]isoquinoline-4,9-dione], the melting point (usually the temperature of the solid-liquid transition) lay in the range of 172 to 174 °C. Moreover, the midpoint of inhibition in [1] (average of five LKB1-null cell lines), the IC50, lay at 0.52 µM. In addition, in [1] (compared with LKB1 wild-type NSCLC cell lines), the “Susceptibility of LKB1-null cell lines” value was “less than that in LKB1 wild-type NSCLC cell lines”. Also, in data set [2], the IC50 (as a rule, the point on the concentration scale where inhibition reaches its midpoint) is 12800 nM. Besides, the IC50 in data set [3] is 5400 nM. Moreover, inhibition in data set [4] was half-maximal at 0.12 µM (IC50). Further, the midpoint of inhibition in [5], the IC50, lay at 0.13 µM. The compound further showed an IC50 in data set [6] of 0.14 µM. The compound further returned a half-inhibitory concentration (IC50) in data set [7] of 0.1 µM. Moreover, the “Anti-proliferative effect upon exogenous introduction of LKB1-WT, but not 3KR” value in data set [8] is reported as “strengthen the anti-proliferative effect”. Moreover, in data set [9] (50 mg/kg orally twice daily), the “Tumor Weight” value is 1.181 g and 1.18 ± 0.49 g; the T/C (as a rule, the ratio of treated to control) was found to be 64.71%. For the same compound, in data set [9] (100 mg/kg orally twice daily), the “Tumor Weight” value is 0.901 g and 0.90 ± 0.23 g; the T/C amounted to 43.88%. This compound also displayed a half-inhibitory concentration (IC50) in data set [10] (average of four LKB1-WT cell lines) of 0.122 µM. Also, half-maximal inhibition in data set [11] (IC50) required 0.46 µM. Besides, in data set [12], the half-maximal inhibitory concentration (IC50) worked out at 0.72 µM. The compound also came in with a half-inhibitory concentration (IC50) in data set [13] of 0.73 µM. In [14], this compound yielded a half-maximal inhibitory concentration (IC50) of 0.24 µM. In data set [15], inhibition was half-maximal at 0.46 µM (IC50). The Cell apoptosis result in [16] is reported as “induced cell apoptosis in a concentration-dependent manner”. Further, the Intratumor cell apoptosis result in data set [17] was “induced intratumor cell apoptosis”. This compound also displayed an IC50 in [18] of 470 nM.

For `O=C1C=CC(=O)c2c1nnn2Cc1cc(F)cc(Cl)c1` [HY032801], the “JOSD2 activity inhibition ratio” value in [19] (2 μM compound incubated with GST-JOSD2 at 37 °C for 30 min) is −0.98%. In data set [19] (read-out: JOSD2 Activity Inhibition (%)), the inhibition (commonly the relative decrease from the control value, in per cent) at 2 µM was -0.98%. Also, in [10] (indicated concentrations), the “Cell viability / cell proliferation” value is “failed to inhibit cell proliferation”.

On to “shJOSD2#1: gene-specific shRNA targeting JOSD2, GCAACTATGATGTCAATGTGA, delivered by lentiviral vector (lentiviral shRNA)”, for which the figures for the Inhibition ratio in [20] and in data set [21] were 64.73% and 52.24%, respectively. Also, the T/C in data set [20] was 37.84%; in [21] it was 64.34%. The “Tumor Weight” value worked out at 0.14 ± 0.07 g in data set [20] (at the endpoint) and 0.08 ± 0.02 g in data set [21] (at the endpoint). The RTV in data set [20] (intratumor injection) came out at 3.20 ± 1.37; in data set [21] (intratumor injection) it was 2.73 ± 0.63.
